Laboratory results: patent publication US8541588B2, “Sulfonamide derivatives” (Pfizer Limited, priority 2009, dated 2013)

The compounds below were run against T1, Nav1.7 (or SCN9A) channel; HEK cells stably transfected with hSCN9A (Homo sapiens, UniProt Q15858) (assay: Nav1.7 block, PatchXpress 7000 automated whole-cell voltage clamp, estimated IC50 (EIC50)). Details: PatchXpress platform; hSCN9A HEK cells held at V1/2 of inactivation; estimated IC50.
T1 construct: expressed in transfected cells
Assay type: cell-based

T1 sequence (Q15858 whole entry): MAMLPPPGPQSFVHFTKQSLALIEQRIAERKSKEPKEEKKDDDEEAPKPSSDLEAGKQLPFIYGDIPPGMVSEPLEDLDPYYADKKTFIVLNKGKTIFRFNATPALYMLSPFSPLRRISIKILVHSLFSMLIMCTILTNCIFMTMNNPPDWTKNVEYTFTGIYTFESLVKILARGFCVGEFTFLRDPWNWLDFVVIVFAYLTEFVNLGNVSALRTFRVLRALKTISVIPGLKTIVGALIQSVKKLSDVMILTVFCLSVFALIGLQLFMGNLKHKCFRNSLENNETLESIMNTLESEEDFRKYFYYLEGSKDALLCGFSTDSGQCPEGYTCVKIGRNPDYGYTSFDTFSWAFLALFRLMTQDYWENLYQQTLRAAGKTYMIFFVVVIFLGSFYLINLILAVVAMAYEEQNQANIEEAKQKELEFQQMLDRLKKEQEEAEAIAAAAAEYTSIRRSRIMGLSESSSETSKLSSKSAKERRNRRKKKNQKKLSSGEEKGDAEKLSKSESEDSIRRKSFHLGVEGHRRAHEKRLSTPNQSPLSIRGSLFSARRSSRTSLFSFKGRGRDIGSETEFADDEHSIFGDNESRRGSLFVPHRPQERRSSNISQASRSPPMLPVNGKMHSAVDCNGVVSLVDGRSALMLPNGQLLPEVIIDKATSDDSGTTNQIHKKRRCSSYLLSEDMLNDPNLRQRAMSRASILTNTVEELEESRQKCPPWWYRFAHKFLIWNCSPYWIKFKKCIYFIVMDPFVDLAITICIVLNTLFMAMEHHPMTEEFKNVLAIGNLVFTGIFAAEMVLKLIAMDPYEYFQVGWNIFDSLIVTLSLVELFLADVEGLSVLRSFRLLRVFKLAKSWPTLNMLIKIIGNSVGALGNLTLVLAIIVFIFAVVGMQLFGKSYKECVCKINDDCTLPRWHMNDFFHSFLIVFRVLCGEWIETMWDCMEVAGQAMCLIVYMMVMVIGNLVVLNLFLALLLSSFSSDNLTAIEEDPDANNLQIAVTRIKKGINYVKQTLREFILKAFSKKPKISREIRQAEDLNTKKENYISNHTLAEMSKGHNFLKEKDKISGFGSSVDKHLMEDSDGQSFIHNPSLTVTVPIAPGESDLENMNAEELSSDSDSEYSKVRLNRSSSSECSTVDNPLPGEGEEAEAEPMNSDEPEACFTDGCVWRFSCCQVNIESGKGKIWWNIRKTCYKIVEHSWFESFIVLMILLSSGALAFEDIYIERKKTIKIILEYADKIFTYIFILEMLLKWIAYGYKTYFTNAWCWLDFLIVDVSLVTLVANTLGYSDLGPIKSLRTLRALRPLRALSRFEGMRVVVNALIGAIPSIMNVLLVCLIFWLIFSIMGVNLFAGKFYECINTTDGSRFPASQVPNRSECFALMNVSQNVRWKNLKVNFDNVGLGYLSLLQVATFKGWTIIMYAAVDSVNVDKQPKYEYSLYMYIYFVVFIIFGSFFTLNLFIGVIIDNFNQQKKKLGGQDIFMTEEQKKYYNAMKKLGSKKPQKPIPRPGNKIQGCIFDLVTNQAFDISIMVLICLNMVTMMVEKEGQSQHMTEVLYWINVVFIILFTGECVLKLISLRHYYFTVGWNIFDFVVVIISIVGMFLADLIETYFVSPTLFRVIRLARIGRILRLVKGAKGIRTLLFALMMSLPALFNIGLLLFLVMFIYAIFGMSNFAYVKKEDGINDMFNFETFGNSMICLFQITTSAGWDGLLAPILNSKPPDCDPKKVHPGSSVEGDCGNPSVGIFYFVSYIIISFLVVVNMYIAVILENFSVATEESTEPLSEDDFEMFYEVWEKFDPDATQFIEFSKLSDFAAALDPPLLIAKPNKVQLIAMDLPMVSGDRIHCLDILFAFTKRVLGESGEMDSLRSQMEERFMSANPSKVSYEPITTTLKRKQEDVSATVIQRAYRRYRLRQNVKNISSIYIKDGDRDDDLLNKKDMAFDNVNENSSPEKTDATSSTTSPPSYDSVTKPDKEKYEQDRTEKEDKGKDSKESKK

Row | IC50 [nM] | Compound
1 | 340 | N#Cc1cc(S(=O)(=O)Nc2ncns2)ccc1Oc1cc(C(F)(F)F)nn1-c1ccc(F)cc1F [Example 58, 3-cyano-4-{[1-(2,4-difluorophenyl)-3-(trifluoromethyl)-1H-pyrazol-5-yl]oxy}-N-1,2,4-thiadiazol-5-ylbenzenesulfonamide]
2 | 3340 | COc1cc(C)ccc1Oc1cccc(F)c1Oc1ccc(S(=O)(=O)Nc2ncns2)cc1C#N [Example 75, 3-cyano-4-[2-fluoro-6-(2-methoxy-4-methylphenoxy)phenoxy]-N-1,2,4-thiadiazol-5-ylbenzenesulfonamide]
3 | 1810 | Cc1nc(-c2ccccc2Oc2ccc(S(=O)(=O)Nc3nccs3)cc2C#N)cs1 [Example 166, 3-cyano-4-(2-(2-methylthiazol-4-yl)phenoxy)-N-(thiazol-2-yl)benzenesulfonamide]
4 | 360 | N#Cc1cc(S(=O)(=O)Nc2ncns2)ccc1Oc1ccccc1Oc1ccc(F)cc1 [Example 77, 3-cyano-4-[2-(4-fluorophenoxy)phenoxy]-N-1,2,4-thiadiazol-5-ylbenzenesulfonamide]
5 | 9190 | Cc1nc(-c2ccccc2Oc2ccc(S(=O)(=O)Nc3nccs3)cc2F)cs1 [Example 130, 3-fluoro-4-[2-(2-methyl-1,3-thiazol-4-yl)phenoxy]-N-1,3-thiazol-2-ylbenzenesulfonamide]
6 | 70 | CC(C)(C)n1nc(C(F)(F)F)cc1-c1ccc(Oc2ccc(S(=O)(=O)Nc3nccs3)cc2C#N)cc1 [Example 279, 4-[4-(2-tertbutyl-5-trifluoromethyl-2H-pyrazol-3-yl)-phenoxy]-3-cyano-N-thiazol-2-yl-benzenesulfonamide]
7 | 630 | COc1ccc(-c2ccccc2Oc2ccc(S(=O)(=O)Nc3ncns3)cc2C#N)c(C)c1 [Example 10, 3-cyano-4-[(4′-methoxy-2′-methylbiphenyl-2-yl)oxy]-N-1,2,4-thiadiazol-5-ylbenzenesulfonamide]
8 | 750 | N#Cc1cc(S(=O)(=O)Nc2nccs2)ccc1Oc1cnn(Cc2ccc(Cl)cc2)c1 [Example 167, 4-(1-(4-chlorobenzyl)-1H-pyrazol-4-yloxy)-3-cyano-N-(thiazol-2-yl)benzenesulfonamide]
9 | 1300 | Cc1nsc(NS(=O)(=O)c2ccc(Oc3ccccc3-c3ccccc3)c(C#N)c2)n1 [Example 103, 4-(biphenyl-2-yloxy)-3-cyano-N-(3-methyl-1,2,4-thiadiazol-5-yl)benzenesulfonamide]
10 | 2670 | N#Cc1cc(S(=O)(=O)Nc2cncs2)ccc1Oc1ccccc1-c1ccccc1 [Example 105, 4-(biphenyl-2-yloxy)-3-cyano-N-1,3-thiazol-5-ylbenzenesulfonamide]
11 | 90 | CC(C)Oc1cccc(-c2ccccc2Oc2ccc(S(=O)(=O)Nc3ncns3)cc2C#N)c1 [Example 34, 3-cyano-4-[(3′-isopropoxybiphenyl-2-yl)oxy]-N-1,2,4-thiadiazol-5-ylbenzenesulfonamide]

Same assay, conditions: estimated IC50; hSCN9A HEK cells, PatchXpress platform; Examples 283-814

Row | IC50 [nM] | Compound
12 | 1600 | N#Cc1cc(S(=O)(=O)Nc2nccs2)ccc1Oc1ccc(-n2ccc(C3CC3)n2)cc1 [Example 370, 3-cyano-4-[4-(3-cyclopropyl-1H-pyrazol-1-yl)phenoxy]-N-1,3-thiazol-2-ylbenzenesulfonamide]
13 | 80 | O=S(=O)(Nc1nccs1)c1ccc(Oc2ccc(OC(F)(F)F)cc2-c2cn[nH]c2)c(F)c1 [Example 687, 3-fluoro-4-[2-(1H-pyrazol-4-yl)-4-(trifluoromethoxy)phenoxy]-N-1,3-thiazol-2-ylbenzenesulfonamide]
14 | 1600 | N#Cc1cncc(-c2cc(C(F)(F)F)ccc2Oc2ccc(S(=O)(=O)Nc3ncns3)cc2C#N)c1 [Example 284, 3-cyano-4-[2-(5-cyanopyridin-3-yl)-4-(trifluoromethyl)phenoxy]-N-1,2,4-thiadiazol-5-ylbenzenesulfonamide]
15 | 740 | CCn1nc(C)cc1-c1ccc(Oc2ccc(S(=O)(=O)Nc3nccs3)cc2C#N)cc1 [Example 388, 3-cyano-4-[4-(1-ethyl-3-methyl-1H-pyrazol-5-yl)phenoxy]-N-1,3-thiazol-2-ylbenzenesulfonamide]
16 | >300 | O=S(=O)(Nc1cscn1)c1cc(Cl)c(Oc2ccc(C(F)(F)F)cc2-c2cncc(CO)c2)cc1F [Example 689, 5-Chloro-2-fluoro-4-{2-[5-(hydroxymethyl)pyridin-3-yl]-4-(trifluoromethyl)phenoxy}-N-1,3-thiazol-4-ylbenzenesulfonamide]
17 | >3000 | CCc1nnc(C)n1-c1ccc(Oc2ccc(S(=O)(=O)Nc3ccc(F)cn3)cc2C#N)cc1 [Example 568, 3-cyano-4-[4-(3-ethyl-5-methyl-4H-1,2,4-triazol-4-yl)phenoxy]-N-(5-fluoropyridin-2-yl)benzenesulfonamide]
18 | 1600 | Cc1cc(C(F)(F)F)nn1-c1cccc(Oc2ccc(S(=O)(=O)Nc3nccs3)cc2C#N)c1 [Example 650, 3-cyano-4-{3-[5-methyl-3-(trifluoromethyl)-1H-pyrazol-1-yl]phenoxy}-N-1,3-thiazol-2-ylbenzenesulfonamide]
19 | 88 | O=S(=O)(Nc1ncc(F)s1)c1ccc(Oc2ccc(Cl)cc2-c2cn[nH]c2)c(F)c1 [Example 674, 4-[4-chloro-2-(1H-pyrazol-4-yl)phenoxy]-3-fluoro-N-(5-fluoro-1,3-thiazol-2-yl)benzenesulfonamide]
20 | 81 | CCn1nc(C(F)(F)F)cc1-c1ccc(Oc2ccc(S(=O)(=O)Nc3nccs3)cc2C#N)c(F)c1 [Example 328, 3-cyano-4-{4-[1-ethyl-3-(trifluoromethyl)-1H-pyrazol-5-yl]-2-fluorophenoxy}-N-1,3-thiazol-2-ylbenzenesulfonamide]
21 | 11 | N#Cc1cc(S(=O)(=O)Nc2nccs2)ccc1Oc1ccc(OC(F)(F)F)cc1-c1cn[nH]c1 [Example 704, 3-cyano-4-[2-(1H-pyrazol-4-yl)-4-(trifluoromethoxy)phenoxy]-N-1,3-thiazol-2-ylbenzenesulfonamide]
22 | 170 | O=S(=O)(Nc1ccncn1)c1ccc(Oc2ccc(Cl)cc2C2CCNCC2)c(Cl)c1 [Example 744, 3-chloro-4-(4-chloro-2-piperidin-4-ylphenoxy)-N-pyrimidin-4-ylbenzenesulfonamide]
23 | 990 | N#Cc1cc(S(=O)(=O)Nc2cscn2)ccc1Oc1ccc(Cl)cc1-c1cn[nH]c1N [Example 393, 4-[2-(5-amino-1H-pyrazol-4-yl)-4-chlorophenoxy]-3-cyano-N-1,3-thiazol-4-ylbenzenesulfonamide]
24 | 25 | Cn1nccc1-c1cc(Cl)ccc1Oc1cc(F)c(S(=O)(=O)Nc2nccs2)cc1Cl [Example 304, 5-chloro-4-[4-chloro-2-(1-methyl-1H-pyrazol-5-yl)phenoxy]-2-fluoro-N-1,3-thiazol-2-ylbenzenesulfonamide]
25 | >300 | CCOCn1nncc1-c1cc(Cl)ccc1Oc1ccc(S(=O)(=O)Nc2nccs2)cc1C#N [Example 323, 4-{4-chloro-2-[1-(ethoxymethyl)-1H-1,2,3-triazol-5-yl]phenoxy}-3-cyano-N-1,3-thiazol-2-ylbenzenesulfonamide]
26 | >3000 | N#Cc1cc(S(=O)(=O)Nc2ccc(F)cn2)ccc1Oc1ccc(-c2cocn2)cc1 [Example 581, 3-cyano-N-(5-fluoropyridin-2-yl)-4-[4-(1,3-oxazol-4-yl)phenoxy]benzenesulfonamide]
27 | 160 | N#Cc1cc(S(=O)(=O)Nc2ncc(Cl)s2)ccc1Oc1ccc(Cl)cc1C1CNC1 [Example 594, 4-(2-Azetidin-3-yl-4-chlorophenoxy)-N-(5-chloro-1,3-thiazol-2-yl)-3-cyanobenzenesulfonamide]
28 | 34 | Cc1nsc(NS(=O)(=O)c2cc(Cl)c(Oc3ccc(Cl)cc3-c3ccnn3C)cc2F)n1 [Example 294, 5-chloro-4-[4-chloro-2-(1-methyl-1H-pyrazol-5-yl)phenoxy]-2-fluoro-N-(3-methyl-1,2,4-thiadiazol-5-yl)benzenesulfonamide]
29 | 5.3 | N#Cc1cc(S(=O)(=O)Nc2ncns2)ccc1Oc1cc(Cl)c(F)cc1-c1cn[nH]c1 [Example 754, 4-[5-chloro-4-fluoro-2-(1H-pyrazol-4-yl)phenoxy]-3-cyano-N-1,2,4-thiadiazol-5-ylbenzenesulfonamide]
30 | 3100 | N#Cc1cc(S(=O)(=O)Nc2nccs2)ccc1Oc1cccc(-c2ccccn2)c1 [Example 449, 3-cyano-4-(3-pyridin-2-ylphenoxy)-N-1,3-thiazol-2-ylbenzenesulfonamide]
31 | 1000 | Cn1cc(-c2cc(Cl)ccc2Oc2ccc(S(=O)(=O)Nc3cscn3)cc2C#N)cn1 [Example 414, 4-[4-chloro-2-(1-methyl-1H-pyrazol-4-yl)phenoxy]-3-cyano-N-1,3-thiazol-4-ylbenzenesulfonamide]

Same assay, conditions: estimated IC50; hSCN9A HEK cells, PatchXpress platform; Examples 815-1040

Row | IC50 [nM] | Compound
32 | 40 | O=S(=O)(Nc1nncs1)c1cc(Cl)c(Oc2cc(OC(F)(F)F)ccc2-c2ccnnc2)cc1F [Example 966, 5-chloro-2-fluoro-4-[2-pyridazin-4-yl-5-(trifluoromethoxy)phenoxy]-N-1,3,4-thiadiazol-2-ylbenzenesulfonamide]
33 | 1.1 | N#Cc1cc(S(=O)(=O)Nc2ncns2)ccc1Oc1ccc(C(F)(F)F)cc1-c1cccc(CN2CC[C@@H](O)C2)c1 [Example 987, 3-cyano-4-{[3′-{[(3R)-3-hydroxypyrrolidin-1-yl]methyl}-5-(trifluoromethyl)biphenyl-2-yl]oxy}-N-1,2,4-thiadiazol-5-ylbenzenesulfonamide]
34 | 3800 | CSc1nc(NS(=O)(=O)c2ccc(Oc3ccc(Cl)cc3-c3ccnn3C)c(C#N)c2)ns1 [Example 893, 4-[4-chloro-2-(1-methyl-1H-pyrazol-5-yl)phenoxy]-3-cyano-N-[5-(methylthio)-1,2,4-thiadiazol-3-yl]benzenesulfonamide]
35 | 21 | Nc1n[nH]cc1-c1cc(Cl)ccc1Oc1cc(F)c(S(=O)(=O)Nc2ccncn2)cc1Cl [Example 1036, 4-[2-(3-amino-1H-pyrazol-4-yl)-4-chlorophenoxy]-5-chloro-2-fluoro-N-pyrimidin-4-ylbenzenesulfonamide]
